In patent US20250186405A1, “Compound For Use In Treating Narcolepsy” (Alkermes, Inc., priority 2023, published 2025):

System: subjects with narcolepsy type-2 (NT2)
Experiment: Part 5 NT2: Karolinska Sleepiness Scale (KSS)
Format: in vivo, human
Details: for Change From Day −1 in Average Karolinska Sleepiness Scale, LSM difference vs placebo: NT2, N = 9; for Change From Day −1 in Average Karolinska Sleepiness Scale, LSM: NT2, N = 9, average of 1, 2, 4, 6, 8 h
Protocol: At points within the study, subjects were asked to rate their sleepiness using the KSS with regard to the level of sleepiness they experienced over the past 5 minutes.
The KSS is a validated, self-reported outcome measure of subjective sleepiness. The KSS was developed as a one-dimensional measure of sleepiness and has been validated against assessments like EEG and electrooculography activity (Akerstedt and Gillberg 1990). The KSS is comprised of a single question that asks the subject to rate their sleepiness in the immediately preceding 5 minutes on a 9-point scale where 1=extremely alert and 9=very sleepy, great effort to keep awake, fighting sleep. The KSS takes approximately 10 to 15 seconds to complete. Thus, the KSS is well suited for repeated measurement at short intervals as it assesses situational sleepiness within a short timeframe.
The PD parameters in the POC evaluation (e.g., changes from baseline in sleep latency on MWT, number of errors on SART and level of sleepiness on KSS at matched time points) were summarized using descriptive statistics for each time point by dose level.

Question: How did the “Change From Day −1 in Average Karolinska Sleepiness Scale, LSM difference vs placebo” value (5 mg) turn out when CS(=O)(=O)N[C@H]1CCCN2C(=O)COc3ccccc3C3CCC(CC3)OCC12 (stereo partly drawn) [Compound A, N-[(4S,4aR,7α,10α)-1,2,3,4,4a,5,7,8,9,10,16,17-dodecahydro-17-oxo-7,10-ethanopyrido[1,2-d][1,7,4]benzodioxaazacyclotridecin-4-yl]methanesulfonamide] was run?
Answer: −0.31

Question: What about the “Change From Day −1 in Average Karolinska Sleepiness Scale, LSM” value (5 mg) of the same molecule?
Answer: −0.68

Question: And the “Change From Day −1 in Average Karolinska Sleepiness Scale, LSM difference vs placebo” value (12 mg)?
Answer: −0.60

Question: And the “Change From Day −1 in Average Karolinska Sleepiness Scale, LSM” value (12 mg)?
Answer: −0.97

Question: What about the “Change From Day −1 in Average Karolinska Sleepiness Scale, LSM difference vs placebo” value (25 mg) of the same molecule?
Answer: −1.42

Question: And the “Change From Day −1 in Average Karolinska Sleepiness Scale, LSM” value (25 mg)?
Answer: −1.78

Question: What about the “LS mean difference vs placebo in change from Day −1, average KSS” value (shortened to “LS mean difference vs placebo in change”) (NT2, 5 mg) of the same molecule?
Answer: −0.31

Question: And the “LS mean difference vs placebo in change” value (NT2, 12 mg)?
Answer: −0.60

Question: And the “LS mean difference vs placebo in change” value (NT2, 25 mg)?
Answer: −1.42
